Results reported in patent US5389643A, “Aminobenzoic acid derivatives useful for treating gastro-intestinal conditions” (Eisai Co., Ltd., priority 1992, dated 1995).
Where a name gives a salt, the structure may show the parent alone. Read-outs that look alike come from different tables or passages of the source.

Tests used:
[1] = system: gastric emptying function; test: Activity for raising gastric emptying function; format: in vivo, Fischer male rats; settings: oral (5 ml/kg), one hour before test food, versus control rat
Procedure: Activity for raising gastric emptying function
This experiment was made according to the method of Decktot et al. [see Eur. J. Pharmacol., 147, 313-316 (1988)]. Fischer male rats (weight: 160 to 180 g) were fasted for 18 hours before 3 ml of a test food comprising methylcellulose, beef broth, casein, sugar and corn starch was orally administered to each rat. One hour after the administration, the stomach was extirpated from each rat. The gastric emptying ratio was calculated from the weight of the test food remaining in the stomach. The ratio of rise of the gastric emptying function was determined by comparing the gastiric emptying ratio of a medicated rat with that of a control rat which had not administered any test compounds. Each test compound (5 ml/kg) was orally administered one hour before the administration of the test food. BRL 24682 was used as a control in this experiment.

[2] = system: contraction of guinea pig ileum induced by electrical field stimulation (acetylcholine release); test: Effect of increasing contraction of guinea pig ileum induced by electrical field stimulation; format: cell-based; settings: electrical field stimulation once per 10 seconds, cumulative addition at intervals of 10 minutes, 37° C., read-out: Min. concn. causing increment of ileal contraction
Procedure: Effect of increasing contraction of guinea pig ileum induced by electrical field stimulation
This experiment was made according to the method of Sanger et al. [see Br. J. Pharmacol., 91, 77-87 (1987)]. The longitudinal muscle of the nonterminal ileum of a guinea pig was separated and vertically suspended in the Krebs-Henseleit solution (37° C.) in a Magnus tube by applying a load of 0.5 g to the end of the muscle. A mixed gas comprising 95% of oxygen and 5% of carbon dioxide was passed through the solution. The contraction of the muscle was isometrically determined. Electrical field stimulation was applied to the muscle by the use of a platinum electrode once per 10 seconds to induce the contraction of the muscle. The contraction was caused through the release of acetylcholine. After the muscle had been stabilized, a solution of a test compound was cumulatively added into the Magnus tube at intervals of 10 minutes. The effect of the test compound is represented by percentage based on the initial contraction. The minimum concentration of each test compound at which an increment was found in the contraction due to the release of acetylcholine is shown in Table 4.

[3] = molecular target: T1, 2-methylserotonin-induced contraction of the ileum (5-HT3 antagonism) (Cavia porcellus, UniProt O70212); test: Antagonism against 2-methylserotonin-induced contraction or systole of ileum; format: cell-based, guinea pig (Hartley male); settings: test compound added 30 minutes before 2-methylserotonin, nonterminal ileum, 37° C.; for Kb: read-out: pA2 (converted)
T1 construct: from tissue; host or cells: isolated nonterminal ileum of male Hartley guinea pig
T1 sequence (O70212 20-490): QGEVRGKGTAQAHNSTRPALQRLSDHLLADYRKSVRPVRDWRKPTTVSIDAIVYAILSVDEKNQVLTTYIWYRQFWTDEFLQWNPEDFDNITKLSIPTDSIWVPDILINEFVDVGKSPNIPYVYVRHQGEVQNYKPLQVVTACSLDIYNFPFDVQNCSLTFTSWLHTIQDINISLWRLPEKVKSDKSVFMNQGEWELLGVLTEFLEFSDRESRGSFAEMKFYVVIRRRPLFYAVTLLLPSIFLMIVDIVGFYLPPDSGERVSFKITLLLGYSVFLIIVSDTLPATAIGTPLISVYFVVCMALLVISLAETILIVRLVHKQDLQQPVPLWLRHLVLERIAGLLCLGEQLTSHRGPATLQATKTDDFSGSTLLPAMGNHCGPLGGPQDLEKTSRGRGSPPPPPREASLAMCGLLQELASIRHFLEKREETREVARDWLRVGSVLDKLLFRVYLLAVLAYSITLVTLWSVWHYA
Procedure: Antagonism against 2-methylserotonin-induced contraction or systole of ileum
This experiment was made according to the method of Sanger et al. [see Eur. J. Pharmacol., 159, 113-124 (1989)]. The nonterminal ileum of a Hartley male guinea pig was suspended in the Krebs-Henseleit solution (37° C.) by applying a load of 0.5 g to the end of the ileum and a gaseous mixture comprising 95% of oxygen and 5% of carbon dioxide was passed through the solution. The contraction of the ileum was isometrically determined. After allowing the ileum to stand for one or more hours for stabilization, a solution of a test compound was added to the solution, and after 30 minutes, 2-methylserotonin was noncumulatively added. The pA2 value was calculated from the rightward shift of the dose-response curve of the 2-methylserotonin-induced contraction caused by the test compound according to the method of Rossum et al. [see Arch. Int. Pharmacodyn., 143, 299(1963)]. BRL 24682 was used as a control in this experiment.

| SMILES | Ratio of rise of gastric emptying function [1] [%] | minimal effective concentration ([2]; Cavia porcellus, 10 min) [µM] | Kb [3] [nM] | further results |
| --- | --- | --- | --- | --- |
| C#CCC(C)Oc1cc(N)c(Cl)cc1C(=O)N[C@H]1C[C@H]2CC[C@@H](C1)N2C (stereo partly drawn) [Example 40, endo-4-Amino-5-chloro-N-(8-methyl-8-azabicyclo[3.2.1]oct-3-yl)-2-{(4-pentyn-2-yl)oxy}benzamide hydrochloride] | 16.2 | 0.22 | – | – |
| C#CC(CCC)Oc1cc(N)c(Cl)cc1C(=O)N[C@H]1C[C@H]2CC[C@@H](C1)N2C (stereo partly drawn) [Example 29, endo-4-Amino-5-chloro-2-{(1-hexyn-3-yl)oxy}-N-(8-methyl-8-azabicyclo[3.2.1]oct-3-yl)benzamide hydrochloride] | 20.6 | 0.26 | 0.457 | – |
| CN1[C@@H]2CC[C@H]1C[C@@H](NC(=O)c1cc(Cl)c(N)cc1OCCF)C2 [Example 30, endo-4-Amino-5-chloro-2-(2-fluoroethoxy)-N-(8-methyl-8-azabicyclo[3.2.1]oct-3-yl)benzamide hydrochloride] | – | 0.038 | – | – |
| CCC#CC(C)Oc1cc(N)c(Cl)cc1C(=O)N[C@H]1C[C@H]2CC[C@@H](C1)N2C (stereo partly drawn) [Example 28, endo-4-Amino-5-chloro-2-{(3-hexyn-2-yl)oxy}-N-(8-methyl-8-azabicyclo[3.2.1]oct-3-yl)benzamide hydrochloride] | – | > 100 | – | – |
| C#CC(C)Oc1cc(N)c(Cl)cc1C(=O)N[C@H]1C[C@H]2CC[C@@H](C1)N2C (stereo partly drawn) [Example 24, endo-4-Amino-2-{(3-butyn-2-yl)oxy}-5-chloro-N-(8-methyl-8-azabicyclo[3.2.1]oct-3-yl)benzamide hydrochloride] | 13.2 | 0.17 | – | – |
| CCC#CC(CC)Oc1cc(N)c(Cl)cc1C(=O)N[C@H]1C[C@H]2CC[C@@H](C1)N2C (stereo partly drawn) [Example 25, endo-4-Amino-5-chloro-2-{(4-heptyn-3-yl)oxy)-N-(8-methyl-8-azabicyclo[3.2.1]oct-3-yl)benzamide hydrochloride] | 26.3 | 1 | 0.891 | – |
| CC#CC(C)Oc1cc(N)c(Cl)cc1C(=O)N[C@H]1C[C@H]2CC[C@@H](C1)N2C (single isomer, unassigned; (+)) [Example 36, (+)-endo-4-Amino-5-chloro-N-(8-methyl-8-azabicyclo[3.2.1]oct-3-yl)-2-{(3-pentyn-2-yl)oxy}benzamide hydrochloride] | – | – | 1.91 | minimal effective concentration ([2]; listed as 36 (-)-isomer, hydrochloride): 0.26 µM |
| C#CC(CC)Oc1cc(N)c(Cl)cc1C(=O)N[C@H]1C[C@H]2CC[C@@H](C1)N2C (single isomer, unassigned; (-)) [Example 37, (-)-endo-4-Amino-5-chloro-N-(8-methyl-8-azabicyclo[3.2.1]oct-3-yl)-2-{(1-pentyn-3-yl)oxy}benzamide hydrochloride] | – | – | – | Ratio of rise of gastric emptying function ([1]; listed as 37 (-)-isomer, hydrochloride): 15.3%; minimal effective concentration ([2]; listed as 37 (+)-isomer, hydrochloride): 0.048 µM |
| CC(Oc1cc(N)c(Cl)cc1C(=O)N[C@H]1C[C@H]2CC[C@@H](C1)N2C)C1CCCC1 (stereo partly drawn) [Example 32, endo-4-Amino-5-chloro-2-(1-cyclopentylethoxy)-N-(8-methyl-8-azabicyclo[3.2.1]oct-3-yl)benzamide hydrochloride] | 18.3 | > 100 | 0.933 | – |
| CC#CCOc1cc(N)c(Cl)cc1C(=O)N[C@H]1C[C@H]2CC[C@@H](C1)N2C [Example 22, endo-4-Amino-2-(2-butynyloxy)-5-chloro-N-(8-methyl-8-azabicyclo[3.2.1]oct-3-yl)benzamide hydrochloride] | – | > 100 | – | – |
| CC#CCCOc1cc(N)c(Cl)cc1C(=O)N[C@H]1C[C@H]2CC[C@@H](C1)N2C [Example 23, endo-4-Amino-5-chloro-N-(8-methyl-8-azabicyclo[3.2.1]oct-3-yl)-2-(3-pentynyloxy)benzamide hydrochloride] | – | > 100 | – | – |
| CC#CC(CC)Oc1cc(N)c(Cl)cc1C(=O)N[C@H]1C[C@H]2CC[C@@H](C1)N2C (stereo partly drawn) [Example 27, endo-4-Amino-5-chloro-2-{(2-hexyn-4-yl)oxy}-N-(8-methyl-8-azabicyclo[3.2.1]oct-3-yl)benzamide hydrochloride] | 17.2 | 0.25 | 0.407 | – |
| COc1cc(N)c(Cl)cc1C(=O)NC1CC2CCC(C1)N2C (stereo not shown) [BRL 24682, reference compound] | 12.9 | – | – | pA2 [3]: 7.80; minimal effective concentration [2]: 0.086 µM |
| C#CC(CC)Oc1cc(N)c(Cl)cc1C(=O)N[C@H]1C[C@H]2CC[C@@H](C1)N2C (single isomer, unassigned; (+)) [Example 38, (+)-endo-4-Amino-5-chloro-N-(8-methyl-8-azabicyclo[3.2.1]oct-3-yl)-2-{(1-pentyn-3-yl)oxy}benzamide hydrochloride] | – | – | 0.955 | Ratio of rise of gastric emptying function ([1]; listed as 38 (+)-isomer, hydrochloride): 20.5%; minimal effective concentration ([2]; listed as 38 (-)-isomer, hydrochloride): 0.13 µM |
| CCC#CCC(C)Oc1cc(N)c(Cl)cc1C(=O)N[C@H]1C[C@H]2CC[C@@H](C1)N2C (stereo partly drawn) [Example 26, endo-4-Amino-S-chloro-2-{(4-heptyn-2-yl)oxy}-N-(8-methyl-8-azabicyclo[3.2.1]oct-3-yl)benzamide hydrochloride] | – | > 100 | 0.468 | – |
| CN1[C@@H]2CC[C@H]1C[C@@H](NC(=O)c1cc(Cl)c(N)cc1OCCCC#N)C2 [Example 31, endo-4-Amino-5-chloro-2-(3-cyanopropoxy)-N-(8-methyl-8-azabicyclo[3.2.1]oct-3-yl)benzamide hydrochloride] | – | > 100 | – | – |
| C#CC(CC)Oc1cc(N)c(Cl)cc1C(=O)N[C@H]1C[C@H]2CC[C@@H](C1)N2C (stereo partly drawn) [Example 20, endo-4-Amino-5-chloro-N-(8-methyl-8-azabicyclo[3.2.1]oct-3-yl)-2-{(1-pentyn-3-yl)oxy}benzamide hydrochloride] | – | 0.11 | – | – |
| CN1[C@@H]2CC[C@H]1C[C@@H](NC(=O)c1cc(Cl)c(N)cc1OC1CCOCC1)C2 [Example 33, endo-4-Amino-5-chloro-N-(8-methyl-8-azabicyclo[3.2.1]-oct-3-yl)-2-(tetrahydro-4H-pyran-4-oxy)benzamide hydrochloride] | – | 1.8 | 6.17 | – |
| C#CCCOc1cc(N)c(Cl)cc1C(=O)N[C@H]1C[C@H]2CC[C@@H](C1)N2C [Example 46, endo-4-Amino-2-(3-butynyloxy)-5-chloro-N-(8-methyl-8-azabicyclo[3.2.1]oct-3-yl)benzamide hydrochloride] | – | 0.16 | – | – |
